{
  "source": "patent US20070203091A1",
  "about": "“Methods and therapeutic compositions for improving liver, blood flow and skeletal muscle functions in advanced diseases and aging” (priority 2006, published 2007)",
  "test": "Laboratory parameters, chemistry: LDH, bilirubin, SGOT, SGPT, Phase I study",
  "assay_type": "in vivo, human",
  "source_text": "Serum LDH levels are an established strong independent negative prognostic factor, inversely related to survival in a great variety of adverse clinical conditions. In advanced refractory cancers, high LDH and low Karnofsky's performance status are among the strongest established independent negative prognostic factors of survival and quality of life (29).",
  "key": {"[1]": {"conditions": "Week 1 (Infusion 1), baseline, N=15"}, "[2]": {"conditions": "patients 502-505, week 1 (pre-dose) to week 13 (follow-up)"}},
  "data": [
    {"smiles": "Nc1ncnc2c1ncn2[C@@H]1O[C@H](COP(=O)(O)OP(=O)(O)OP(=O)(O)O)[C@@H](O)[C@H]1O", "note": "[ATP, adenosine 5′-triphosphate]", "values": [
      {"measurement": "LDH, Change from Baseline, Median", "setting": "[1]", "result": 0.0, "unit": "U/L"},
      {"measurement": "LDH, Observed Values, Mean", "setting": "[1]", "result": 349.0, "unit": "U/L"},
      {"measurement": "LDH, Observed Values, Median", "setting": "[1]", "result": 265.0, "unit": "U/L"},
      {"measurement": "Phosphorus, Change from Baseline, Mean", "setting": "[1]", "result": 0.0, "unit": "mg/dL"},
      {"measurement": "Phosphorus, Change from Baseline, Median", "setting": "[1]", "result": 0.0, "unit": "mg/dL"},
      {"measurement": "Phosphorus, Observed Values, Mean", "setting": "[1]", "result": 3.1, "unit": "mg/dL"},
      {"measurement": "Phosphorus, Observed Values, Median", "setting": "[1]", "result": 3.2, "unit": "mg/dL"},
      {"measurement": "Total Bilirubin, Change from Baseline, Mean", "setting": "[1]", "result": 0.0, "unit": "mg/dL"},
      {"measurement": "Total Bilirubin, Change from Baseline, Median", "setting": "[1]", "result": 0.0, "unit": "mg/dL"},
      {"measurement": "Total Bilirubin, Observed Values, Mean", "setting": "[1]", "result": 0.7, "unit": "mg/dL"},
      {"measurement": "Total Bilirubin, Observed Values, Median", "setting": "[1]", "result": 0.4, "unit": "mg/dL"},
      {"measurement": "LDH, Change from Baseline, Median", "setting": "Week 2 (Infusion 2), N=14", "result": 24.0, "unit": "U/L"},
      {"measurement": "LDH, Observed Values, Mean", "setting": "Week 2 (Infusion 2), N=14", "result": 386.6, "unit": "U/L"},
      {"measurement": "LDH, Observed Values, Median", "setting": "Week 2 (Infusion 2), N=14", "result": 325.5, "unit": "U/L"},
      {"measurement": "Phosphorus, Change from Baseline, Mean", "setting": "Week 2 (Infusion 2), N=14", "result": 0.1, "unit": "mg/dL"},
      {"measurement": "Phosphorus, Change from Baseline, Median", "setting": "Week 2 (Infusion 2), N=14", "result": 0.1, "unit": "mg/dL"},
      {"measurement": "Phosphorus, Observed Values, Mean", "setting": "Week 2 (Infusion 2), N=14", "result": 3.2, "unit": "mg/dL"},
      {"measurement": "Phosphorus, Observed Values, Median", "setting": "Week 2 (Infusion 2), N=14", "result": 3.2, "unit": "mg/dL"},
      {"measurement": "Total Bilirubin, Change from Baseline, Mean", "setting": "Week 2 (Infusion 2), N=14", "result": -0.1, "unit": "mg/dL"},
      {"measurement": "Total Bilirubin, Change from Baseline, Median", "setting": "Week 2 (Infusion 2), N=14", "result": 0.0, "unit": "mg/dL"},
      {"measurement": "Total Bilirubin, Observed Values, Mean", "setting": "Week 2 (Infusion 2), N=14", "result": 0.6, "unit": "mg/dL"},
      {"measurement": "Total Bilirubin, Observed Values, Median", "setting": "Week 2 (Infusion 2), N=14", "result": 0.4, "unit": "mg/dL"},
      {"measurement": "LDH, Change from Baseline, Median", "setting": "Week 4 (Infusion 4), N=11", "result": 3.0, "unit": "U/L"},
      {"measurement": "LDH, Observed Values, Mean", "setting": "Week 4 (Infusion 4), N=11", "result": 277.4, "unit": "U/L"},
      {"measurement": "LDH, Observed Values, Median", "setting": "Week 4 (Infusion 4), N=11", "result": 211.0, "unit": "U/L"},
      {"measurement": "Phosphorus, Change from Baseline, Mean", "setting": "Week 4 (Infusion 4), N=11", "result": -0.1, "unit": "mg/dL"},
      {"measurement": "Phosphorus, Change from Baseline, Median", "setting": "Week 4 (Infusion 4), N=11", "result": 0.0, "unit": "mg/dL"},
      {"measurement": "Phosphorus, Observed Values, Mean", "setting": "Week 4 (Infusion 4), N=11", "result": 3.1, "unit": "mg/dL"},
      {"measurement": "Phosphorus, Observed Values, Median", "setting": "Week 4 (Infusion 4), N=11", "result": 3.0, "unit": "mg/dL"},
      {"measurement": "Total Bilirubin, Change from Baseline, Mean", "setting": "Week 4 (Infusion 4), N=11", "result": 0.2, "unit": "mg/dL"},
      {"measurement": "Total Bilirubin, Change from Baseline, Median", "setting": "Week 4 (Infusion 4), N=11", "result": -0.1, "unit": "mg/dL"},
      {"measurement": "Total Bilirubin, Observed Values, Mean", "setting": "Week 4 (Infusion 4), N=11", "result": 0.8, "unit": "mg/dL"},
      {"measurement": "Total Bilirubin, Observed Values, Median", "setting": "Week 4 (Infusion 4), N=11", "result": 0.2, "unit": "mg/dL"},
      {"measurement": "LDH, Change from Baseline, Median", "setting": "Week 6 (Infusion 6), N=9", "result": "−20.0", "unit": "U/L"},
      {"measurement": "LDH, Observed Values, Mean", "setting": "Week 6 (Infusion 6), N=9", "result": 265.6, "unit": "U/L"},
      {"measurement": "LDH, Observed Values, Median", "setting": "Week 6 (Infusion 6), N=9", "result": 173.0, "unit": "U/L"},
      {"measurement": "Phosphorus, Change from Baseline, Mean", "setting": "Week 6 (Infusion 6), N=9", "result": -0.1, "unit": "mg/dL"},
      {"measurement": "Phosphorus, Change from Baseline, Median", "setting": "Week 6 (Infusion 6), N=9", "result": 0.2, "unit": "mg/dL"},
      {"measurement": "Phosphorus, Observed Values, Mean", "setting": "Week 6 (Infusion 6), N=9", "result": 3.1, "unit": "mg/dL"},
      {"measurement": "Phosphorus, Observed Values, Median", "setting": "Week 6 (Infusion 6), N=9", "result": 3.3, "unit": "mg/dL"},
      {"measurement": "Total Bilirubin, Change from Baseline, Mean", "setting": "Week 6 (Infusion 6), N=9", "result": 1.2, "unit": "mg/dL"},
      {"measurement": "Total Bilirubin, Change from Baseline, Median", "setting": "Week 6 (Infusion 6), N=9", "result": -0.1, "unit": "mg/dL"},
      {"measurement": "Total Bilirubin, Observed Values, Mean", "setting": "Week 6 (Infusion 6), N=9", "result": 1.9, "unit": "mg/dL"},
      {"measurement": "Total Bilirubin, Observed Values, Median", "setting": "Week 6 (Infusion 6), N=9", "result": 0.3, "unit": "mg/dL"},
      {"measurement": "LDH, Change from Baseline, Median", "setting": "Week 8 (Infusion 8), N=6", "result": "−25.0", "unit": "U/L"},
      {"measurement": "LDH, Observed Values, Mean", "setting": "Week 8 (Infusion 8), N=6", "result": 245.0, "unit": "U/L"},
      {"measurement": "LDH, Observed Values, Median", "setting": "Week 8 (Infusion 8), N=6", "result": 161.0, "unit": "U/L"},
      {"measurement": "Phosphorus, Change from Baseline, Mean", "setting": "Week 8 (Infusion 8), N=7", "result": 0.3, "unit": "mg/dL"},
      {"measurement": "Phosphorus, Change from Baseline, Median", "setting": "Week 8 (Infusion 8), N=7", "result": 0.0, "unit": "mg/dL"},
      {"measurement": "Phosphorus, Observed Values, Mean", "setting": "Week 8 (Infusion 8), N=7", "result": 3.4, "unit": "mg/dL"},
      {"measurement": "Phosphorus, Observed Values, Median", "setting": "Week 8 (Infusion 8), N=7", "result": 3.4, "unit": "mg/dL"},
      {"measurement": "Total Bilirubin, Change from Baseline, Mean", "setting": "Week 8 (Infusion 8), N=7", "result": -0.0, "unit": "mg/dL"},
      {"measurement": "Total Bilirubin, Change from Baseline, Median", "setting": "Week 8 (Infusion 8), N=7", "result": -0.1, "unit": "mg/dL"},
      {"measurement": "Total Bilirubin, Observed Values, Mean", "setting": "Week 8 (Infusion 8), N=7", "result": 0.4, "unit": "mg/dL"},
      {"measurement": "Total Bilirubin, Observed Values, Median", "setting": "Week 8 (Infusion 8), N=7", "result": 0.4, "unit": "mg/dL"},
      {"measurement": "LDH, Change from Baseline, Median", "setting": "Week 10 (Follow-up), N=5", "result": "−15.0", "unit": "U/L"},
      {"measurement": "LDH, Observed Values, Mean", "setting": "Week 10 (Follow-up), N=5", "result": 214.6, "unit": "U/L"},
      {"measurement": "LDH, Observed Values, Median", "setting": "Week 10 (Follow-up), N=5", "result": 155.0, "unit": "U/L"},
      {"measurement": "Phosphorus, Change from Baseline, Mean", "setting": "Week 10 (Follow-up), N=6", "result": 0.0, "unit": "mg/dL"},
      {"measurement": "Phosphorus, Change from Baseline, Median", "setting": "Week 10 (Follow-up), N=6", "result": 0.3, "unit": "mg/dL"},
      {"measurement": "Phosphorus, Observed Values, Mean", "setting": "Week 10 (Follow-up), N=6", "result": 3.2, "unit": "mg/dL"},
      {"measurement": "Phosphorus, Observed Values, Median", "setting": "Week 10 (Follow-up), N=6", "result": 3.3, "unit": "mg/dL"},
      {"measurement": "Total Bilirubin, Change from Baseline, Mean", "setting": "Week 10 (Follow-up), N=6", "result": 0.1, "unit": "mg/dL"},
      {"measurement": "Total Bilirubin, Change from Baseline, Median", "setting": "Week 10 (Follow-up), N=6", "result": -0.1, "unit": "mg/dL"},
      {"measurement": "Total Bilirubin, Observed Values, Mean", "setting": "Week 10 (Follow-up), N=6", "result": 0.5, "unit": "mg/dL"},
      {"measurement": "Total Bilirubin, Observed Values, Median", "setting": "Week 10 (Follow-up), N=6", "result": 0.4, "unit": "mg/dL"},
      {"measurement": "LDH, Change from Baseline, Median", "setting": "Week 13 (Follow-up), N=5", "result": "−27.0", "unit": "U/L"},
      {"measurement": "LDH, Observed Values, Mean", "setting": "Week 13 (Follow-up), N=5", "result": 168.2, "unit": "U/L"},
      {"measurement": "LDH, Observed Values, Median", "setting": "Week 13 (Follow-up), N=5", "result": 158.0, "unit": "U/L"},
      {"measurement": "Phosphorus, Change from Baseline, Mean", "setting": "Week 13 (Follow-up), N=5", "result": -0.0, "unit": "mg/dL"},
      {"measurement": "Phosphorus, Change from Baseline, Median", "setting": "Week 13 (Follow-up), N=5", "result": 0.2, "unit": "mg/dL"},
      {"measurement": "Phosphorus, Observed Values, Mean", "setting": "Week 13 (Follow-up), N=5", "result": 3.2, "unit": "mg/dL"},
      {"measurement": "Phosphorus, Observed Values, Median", "setting": "Week 13 (Follow-up), N=5", "result": 3.2, "unit": "mg/dL"},
      {"measurement": "Total Bilirubin, Change from Baseline, Mean", "setting": "Week 13 (Follow-up), N=6", "result": 0.1, "unit": "mg/dL"},
      {"measurement": "Total Bilirubin, Change from Baseline, Median", "setting": "Week 13 (Follow-up), N=6", "result": 0.1, "unit": "mg/dL"},
      {"measurement": "Total Bilirubin, Observed Values, Mean", "setting": "Week 13 (Follow-up), N=6", "result": 0.4, "unit": "mg/dL"},
      {"measurement": "Total Bilirubin, Observed Values, Median", "setting": "Week 13 (Follow-up), N=6", "result": 0.4, "unit": "mg/dL"},
      {"measurement": "SGOT (serum glutamate oxaloacetate transaminase)", "setting": "[2]", "result": "Consistent decreases"},
      {"measurement": "SGPT (serum glutamate pyruvate transaminase)", "setting": "[2]", "result": "Consistent decreases"},
      {"measurement": "serum LDH (lactate dehydrogenase)", "setting": "[2]", "result": "Consistent decreases"},
      {"measurement": "serum levels of bilirubin", "setting": "week 13 of treatment", "result": "remained stable"},
      {"measurement": "serum levels of lactate dehydrogenase (LDH)", "setting": "week 13 of treatment", "result": "dropped"}
    ]}
  ]
}
